What was measured:
[1] = Ex vivo radiometabolite analysis in CD-1 mice
Experimental: Female adult CD-1 mice (25–42 g body weight) were used for radiometabolite analysis of [^18F]JHU94620-d4 (n = 2, 33 and 34 MBq) and [^18F]JHU94620-d8 (n = 3, 26–33 MBq) at 30 min after intravenous tail vein injection of the radiotracer to allow for the comparison of radiometabolite analysis of [^18F]JHU94620 (Moldovan et al. [2016]). The mice were immobilized by short isoflurane narcosis for the injection of the radiotracer in a restrainer and awakened mice were kept in an isolated cage until euthanisation by cervical dislocation under isoflurane narcosis. Male Wistar rats (n = 12, 613–794 g) were used for radiometabolite analysis of [^18F]JHU94620-d8 at different time points (5, 15, 30 and 60 min p.i.) after intravenous tail vein injection of the radiotracer (37–74 MBq) for the correction of the input function in pharmacokinetic analysis. Rats were kept under isoflurane narcosis (gas mixture: 2.5% isoflurane and O2) on a warmed plate until euthanization by decapitation of deep narcotized animals. Plasma samples were obtained by centrifugation with 5500 g of blood samples for 2 min at 4 °C. Resected tissues brain and spleen were kept on ice and minced for 3 × 20 s with adding 0.5 to 1 mL of 0.9% NaCl using a Precellys lysing kit and Minilys homogenizer (Bertin Technologies SAS, Montigny-le-Bretonneux, France).
The samples were further processed for subsequent radio-chromatographic analyses. Two consecutive extractions were performed in duplicates for plasma and brain determinations. Plasma, brain and spleen samples were added to the four time the volume of an ice-cold MeOH/H2O mixture (9:1, v/v). The samples were vortexed for 3 min, incubated on ice for 5 min and centrifuged at 8,600 g for 5 min. Supernatants were collected and the precipitates were re-dissolved in 100 µL of extraction solvent and the extraction procedure was repeated. The activities of supernatants and precipitates were measured in a γ-counter (1480 WIZARD, Perkin Elmer), and the extraction efficiencies were calculated as the ratio of radioactivity in the supernatant to the radioactivity in the original sample (supernatant + precipitate). The supernatants from both extractions were combined, concentrated at 70 °C under argon stream up to a remaining volume of 100 µL, and subsequently analysed by analytical radio-HPLC (method A or B).

hCB2R(D80N) = hCB2R(D80N) (Homo sapiens, UniProt P34972, D80N); settings: female, Wistar, rat, in vivo
Experimental: The dynamic biodistribution of the radiotracer in the lower body of rats was assessed by small animal PET (Nanoscan, Mediso, Hungary) over 60 min with a subsequently T1-weighted MR. Anaesthetized (2% isoflurane, carrier gas mixture of 40% air and 60% O2) male Wistar rats (body weight: 205–308 g, age: 8–10 weeks, no gender-specific differences were taken into account) were kept during imaging on a heated animal bed to sustain body temperature and were pretreated with vehicle (DMSO:Kolliphore EL:0.9% saline, 1:2:7), JHU94620-d8 (1.5 mg kg^−1 bodyweight) or with GW405833 (5 mg kg^−1 bodyweight) 5 min prior tracer application ([^18F]JHU94620-d8: 7.7–28.2 MBq, 0.4 to 3.2 nmol kg^−1 bodyweight), whereby all injections were administered intravenously. For the evaluation of the hCB2R-specific binding of the radiotracer in the brain, female Wistar rats (n = 6, 253–269 g, age: 8 month) were used carrying stereotactically injected constructs of AAV2/7-CaMKII0.4-intron-hCB2R(D80N) in the right striatum and AAV2/7-CaMKII0.4-intron-3flag-eGFP in the control/contralateral striatum (Vandeputte et al. [2011]). 21–26 MBq corresponding to 0.2 to 2.0 nmol kg^−1 bodyweight radiotracer were injected, whereas in displacement studies 5 mg kg^−1 bodyweight GW405833 was administered 20 min after the radiotracer (each n = 3). The PET scans were performed six months after the stereotactic injections of the AAV2/7-constructs.
The acquisitions were performed in normal mode and a coincidence mode 1–5. For subsequent dynamic reconstructions list mode data were sorted into sinograms (12 × 10 s, 6 × 30 s, 5 × 60 s and 10 × 300 s). The frames were reconstructed by Ordered Subset Expectation Maximization applied to 3D (OSEM3D) sinograms corrected for decay and attenuation (4 iterations, 6 subsets and a voxel size of 0.4 mm^3) with the Nucline software v2.01 (Mediso, Budapest, Hungary). Analyses of reconstructed studies were performed with PMOD software (v4.205, PMOD Technologies LLC, Fällanden, Switzerland) and results are expressed in standardized uptake values (SUVs) or normalized to a reference region (SUVr).
From the wildtype rats used for in vivo metabolism studies a hematocrit content of 0.56 ± 0.04 (n = 11) was determined by a 5 min centrifugation of 50 µl blood in a hematocrit centrifuge at 500 g. The free plasma fraction (fp) of [^18F]JHU94620-d8 was determined gravimetrically by ultrafiltration of 100 µl rat plasma samples incubated for 5, 15, 30 and 60 min at 37 °C for 20 min at 14,000 g utilizing Nanosep® centrifugal filters (10 kDa, Pall Laboratory, USA). The brain PET images were co-registered to the PMOD integrated Px Rat (W. Schiffer) T2 MR template and the brain stem, cerebellum, left cortex and left midbrain region from the corresponding brain atlas were used for the determination of the regional TACs. Due to high spillover signals from the hCB2R(D80N) expressing region not all provided atlas regions could be evaluated. Subsequently, the total tissue distribution (VT) was estimated by 2-tissue compartment modelling. For correction of the TACs, an averaged image-derived input function (pIDIF, plasma-to-whole blood ratio corrected), determined in biodistribution studies and the parent fraction derived from metabolism studies in Wistar rats (Watabe fit) and pIDIF (3-exponential fit) were integrated into the modelling process. The binding potential was estimated by a simplified reference tissue modelling (SRTM) using the cerebellar region as reference. The parametric maps were generated with the PXMOD module.

[2] = female, CD-1, mouse, in vivo, 30 min

Chain of hCB2R(D80N) (P34972 whole entry D80N): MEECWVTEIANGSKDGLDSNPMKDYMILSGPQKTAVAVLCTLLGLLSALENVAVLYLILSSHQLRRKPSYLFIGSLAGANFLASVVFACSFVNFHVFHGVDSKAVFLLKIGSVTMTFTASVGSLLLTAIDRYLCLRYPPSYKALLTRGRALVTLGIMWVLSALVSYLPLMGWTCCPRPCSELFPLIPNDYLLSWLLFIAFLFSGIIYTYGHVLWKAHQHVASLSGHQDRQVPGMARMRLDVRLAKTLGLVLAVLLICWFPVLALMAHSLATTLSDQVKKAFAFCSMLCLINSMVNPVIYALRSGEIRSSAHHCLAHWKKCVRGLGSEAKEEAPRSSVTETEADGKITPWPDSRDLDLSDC

SMILES: [2H]C([2H])([18F])C([2H])([2H])C([2H])([2H])C([2H])([2H])n1c(C)c(C)s/c1=N\C(=O)C1C(C)(C)C1(C)C [[^18F]JHU94620-d8]
- percentage printed at the radiotracer peak of the representative radio-HPLC chromatogram (Mice) ([1]; CD-1, mouse, in vivo, 30 min): 80%
- parent fraction in brain, higher compared to the non-deuterated isotopologue ([1]; CD-1 mice, brain, 30 min p.i.): 50%
- parent fraction in brain ([1]; CD-1 mice, brain, 30 min p.i., mean ± SD): 0.72 ± 0.05
- in vivo metabolic stability (comparison in words) ([1]; female, CD-1, mouse, in vivo, 0.5 h): slightly superior to [^18F]JHU94620-d4
- parent fraction in blood plasma [1, 2]: 0.13 ± 0.04
- parent fraction in spleen [1, 2]: 0.87 ± 0.10
- TAC peak value, Cerebellum (hCB2R(D80N)): 2.8 ± 0.2 SUVmean
- TAC peak value, Contralateral (hCB2R(D80N)): 3.3 ± 0.5 SUVmean
- Time-to-peak, Cerebellum (hCB2R(D80N)): 2.5 min
- Time-to-peak, Contralateral (hCB2R(D80N)): 3.5 min
- Time-to-peak, hCB2R(D80N) (hCB2R(D80N)): 10 min
- VT of hCB2R(D80N) region, times higher than other investigated brain regions (hCB2R(D80N)): up to 23 times
- SUVr60min hCB2R(D80N)-to-Cerebellum (hCB2R(D80N); 60 min): 47 ± 4
- SUVr60min hCB2R(D80N)-to-Contralateral (hCB2R(D80N); 60 min): 10 ± 4
